In series [1] the test system is corneal damage in dry eye model (exorbital lacrimal gland removed). Nature of the series: Healing effect test for corneal damage (dry eye model, fluorescein staining score). Format: in vivo, male SD rats. The protocol:
Healing Effect Test for Corneal Damage Using male SD rats, a dry eye model was produced according to the method of Fujihara et al. (Invest. Ophthalmol. Vis. Sci 42 (1): 96-100 (2001)). After producing the dry eye model, cure rate of a corneal damage was determined according to the method of Miyata et al. (Japanese Review of Clinical Ophthalmology, 48 (2): 183-188 (1994)). A male SD rat was systemically anesthetized by an interperitoneal administration of Nembutal in an amount of 35 mg/kg. Subsequently, exorbital lacrimal gland was removed, and corneal damage was induced over two months. Next, a 0.01% solution of the present compound dissolved in a physiological saline solution was instilled into one eye, while the physiological saline solution (control) was instilled into the other eye, respectively, six times per day for 7 days. On day 7 after initiating the instillation, impaired part of the cornea was stained with fluorescein. Score of upper, middle and lower parts of the cornea were assessed according to the following criteria on the extent of staining by fluorescein, respectively. […] Similar test was also conducted on normal eyes as described above to determine the mean value of total scores on each part described above. 0: No punctate staining 1: Scattered staining (punctate, separated staining) 2: Moderate staining (a part of punctate staining being adjacent) 3: Heavy staining (punctate, barely separated staining) Improvement ratio of the 0.01% eye drop administration group of the present compound is shown in Table 1 calculated on the basis of the mean value of total scores of the aforementioned respective parts in the group (control) administered with a physiological saline solution eye drop as a standard value (improvement ratio: 0%), according to the following calculating formula. Mean value of the scores was obtained by averaging 8 examples in each case. [formula]

The conditions of series [2]: hydrochloride compared with free form; cited from earlier work.
The conditions of series [3]: hydrochloride compared with free form; cited from earlier work. The source holds these as a separate data set.

`COc1ccc2nc(COc3ccc(CC4SC(=O)NC4=O)cc3)n(C)c2c1` (centres unmarked) [Present compound, 5-[4-(6-methoxy-1-methyl-1H-benzimidazol-2-ylmethoxy)benzyl]thiazolidine-2,4-dione]: the “Improvement ratio (%)” value in series [1] (0.01% eye drop, six times per day for 7 days, calculated from mean total scores with saline control as 0%) is 53%. Further, the “Mean value of total scores” value in series [1] (fluorescein staining scores (0-3) of upper, middle and lower cornea summed, 0.01% solution in physiological saline instilled six times per day for 7 days, day 7, mean of 8, normal eye 2.9, control 6.1) is given as 4.4. The “Improvement of the corneal damage (in words)” value in series [1] (rat dry eye model, 0.01% eye drop) is given as “markedly improves the corneal damage”.

Take `COc1ccc2nc(COc3ccc(CC4SC(=O)NC4=O)cc3)n(C)c2c1` (centres unmarked) [5-[4-(6-methoxy-1-methyl-1H-benzimidazol-2-ylmethoxy)benzyl]thiazolidine-2,4-dione]: the Oral absorptivity result in series [2] is on record as “excellent oral absorptivity”. Moreover, the “Solubility in comparison with the free form” value in series [3] is “remarkable elevation of solubility”.

(Values after US7358255B2, “Therapeutic agent for keratoconjunctival disorder” (Santen Pharmaceutical Co., Ltd., priority 2003, dated 2008).)
